Test results from PMC11514049, “The Tmem16a chloride channel is required for mucin maturation after secretion from goblet-like cells in the Xenopus tropicalis tadpole skin” (Scientific Reports, 2024).
Where two headings read alike, the source gives them in different places.

How the values were obtained:
X. tropicalis Tmem16a = X. tropicalis Tmem16a (Xenopus tropicalis, UniProt W8PFC5); test: Whole-cell patch clamp (QPatch) of X. tropicalis Tmem16a transfected into HEK293 cells; format: cell-based
Protocol: We cloned and expressed full-length X. tropicalis tmem16a in HEK293 cells. At 48 h post-transfection, channel conductance and pharmacological characteristics were examined by whole-cell voltage clamp. Tmem16a channel activity was evoked using membrane depolarisation in the presence of intracellular calcium, and resultant whole-cell currents measured using chloride-selective buffers.
HEK Flp-In-293 null cells (Thermo Fisher) were stored, thawed and cultured as described by the supplier, but without antibiotic supplementation of the growth medium. For transfections, cells were seeded in 75 cm^2 vented culture flasks at a density of 0.018 × 10^6 cells per cm^2 and maintained at 37 °C in 5% CO2 for 24 h, to ensure approximately 40% confluence at the point of transfection. Cells were transfected with 6 µg of pCS2-tmem16a plasmid in a 1:6 volume ratio with transfection reagent GeneJammer (Agilent), according to the manufacturer’s protocol. Transfected cells were maintained in antibiotic-free growth medium at 37 °C in 5% CO2 for 24 h. The transfection medium was then aspirated, replaced with complete growth medium containing 1% penicillin-streptomycin (GIBCO), and cells cultured for a further 24 h at 37 °C in 5% CO2 to achieve 70–80% confluence prior to electrophysiology studies. HEK cells expressing Tmem16a were harvested using a 2:1 volume ratio of Detachin (AMSBio) and 0.05% Trypsin-EDTA (GIBCO), and resuspended in CHO serum-free medium (GIBCO) supplemented with 25 mM HEPES (GIBCO) and 0.04 mg ml^−1 trypsin inhibitor (Sigma Aldrich) to a density of 2.5-5.0 × 10^6 cells ml^−1. […] To prevent clumping of the suspended cells prior to assay, the cell suspension was maintained by stirring gently but continually at room temperature for 20 min to 2 hours.
Single cell whole-cell patch clamp recordings were performed using the QPatch planar patch-clamp system (Sophion Biosciences). The automated platform resuspended the cells in extracellular buffer containing NMDG-Cl (130 mM), HEPES (10 mM), CaCl2 (2 mM) and MgCl2 (1 mM), adjusted to pH 7.30 using HCl and 325 mOsm using sucrose. On establishing single-cell giga-Ohm seals, cell membranes were ruptured by suction pulse and dialysed with intracellular solution containing NMDG-Cl (130 mM), EGTA (20 mM), CaCl2 (20 mM; calculated to deliver a free intracellular [Ca^2+] of 338 nM (https://somapp.ucdmc.ucdavis.edu/pharmacology/bers/maxchelator/webmaxc/webmaxcE.htm) at 22 °C to achieve high Tmem16a-mediated current activation for testing inhibitor compounds), HEPES (10 mM), BAPTA (10 mM), MgCl2 (1 mM) and Mg-ATP (2 mM), adjusted to pH 7.25 using HCl and 325 mOsm using sucrose. The calcium activation curve was achieved by varying CaCl2 concentration from 0 to 25.7 mM to generate a 0-1000 nM range of free intracellular [Ca^2+].
Whole-cell recordings were performed from a resting membrane potential of - 70 mV, applied across the cell membrane between an intracellular (working) and extracellular (reference) electrode in each QPatch recording well. To activate Tmem16a currents, the membrane was depolarised once every 20 s for a duration of 1 s. For concentration-response experiments, this depolarising step was set to + 70 mV. To test current-voltage relationship, the depolarisations were varied between − 90 and + 90 mV in 20 mV increments. Signals were subject to fourth-order Bessel filtering (sampling frequency 10 kHz, cut-off 3 kHz). Capacitance and series resistance were monitored throughout the recordings; data was only accepted from wells in which these parameters remained stable.
All current data was captured at the end of the 1 s depolarising voltage step.

human TMEM16Aacd = conditions: cited from earlier work
[1] = system: background chloride current of sham HEK-293 transfects; test: Whole-cell patch clamp of sham-transfected HEK cells (background chloride current); format: cell-based; conditions: 100 µM CaCCinh-A01
Source text: Methods: Pharmacology data was generated from 16 QPatch runs. […] This definition of ‘transfected’ vs ‘untransfected’ was established by comparing transfected cell recordings with ‘sham’ transfects, i.e. cells that had undergone the same transfection process but with the omission of plasmid DNA (Supplementary Figure S1). […] Cells with these characteristics were deemed to be expressing X. tropicalis Tmem16a, and only recordings from successfully-transfected cells which additionally passed seal/series resistance and capacitance quality control criteria, were used in analysis of X. tropicalis Tmem16a currents.

human TMEM16A = conditions: cited from earlier work
Tmem16a = test: Wholemount immunofluorescence for Tmem16a in tadpole skin after morpholino injection; format: in vivo, Xenopus tropicalis; conditions: 15 ng MO injected into fertilised egg, tadpoles at NF38, vs MOC
Protocol: (§1) Embryos for microinjection were de-jellied for approximately five minutes in 0.1 X MMR containing 2% (w/v) L-cysteine (pH 7.8), and washed several times in 0.1 X MMR. Microinjections were performed at NF1/fertilised egg (or, where indicated in the text, NF4/8-cell stage) using a Picospritzer III microinjector (Intracel) to inject 1–4 nl volumes. During injection and for one hour after, embryos were maintained in 0.1 X MMR containing 2% (w/v) Ficoll™ 400 (Thermo Fisher). Antisense morpholino oligonucleotides (MO) and standard control MO (MOC) were designed by and purchased from Gene Tools LLC. MO sequences were: MOC 5′-[…]-3′; tmem16a splice MO 5’-[…]-3’. MOs were reconstituted to 20 ng nl^−1 in non-DEPC-treated nuclease-free water (Thermo Fisher) and stored in small aliquots in tightly-sealed vials at room temperature. MOs were heated at 65 °C for five minutes then vortexed before dilution/use, to ensure the MO was fully dissolved. […]
Wholemount chromogenic and fluorescence in situ hybridisation was performed as previously described[84],[85]. […] Chromogenic staining and fluorescence were visualised by stereomicroscopy (Leica M165 FC using Leica Application Suite X v5.2.2 software) and fluorescence by confocal imaging (Olympus IX81 using FV10-ASW v4.2 software). […] Fiji v2.14.0 software[88] was used to convert images into colours accesible to colour-blind readers.

[2] = system: MucXS secretion from tadpole skin; test: Ionomycin-induced MucXS secretion into tadpole media (slot blot, anti-MucXS); format: in vivo, Xenopus tropicalis; conditions: 10 min, MO- vs MOC-injected embryos, three biological replicates, p = 0.0062
Protocol: as §1
Batches of 100 NF42 embryos were collected in 500 µl 0.01 X MMR in a single well of a 24-well plate. […] MucXS in unfractionated or fractionated media was detected via slot blotting and subsequent immunodetection with an anti-MucXS antibody. Quantification of signal from slot blots was achieved using Fiji v2.14.0 software to capture the raw integrated density of pixels for each signal band. […]

human TMEM16Aabc = conditions: whole-cell patch clamp ref 65; cited from earlier work
[3] = maximally-active current, 338 nM free [Ca2+]i (EC100), +70 mV, HEK293, mean ± SEM, read-out: IC50 X. tropicalis Tmem16a

Sequence of X. tropicalis Tmem16a (W8PFC5 entry or part of it): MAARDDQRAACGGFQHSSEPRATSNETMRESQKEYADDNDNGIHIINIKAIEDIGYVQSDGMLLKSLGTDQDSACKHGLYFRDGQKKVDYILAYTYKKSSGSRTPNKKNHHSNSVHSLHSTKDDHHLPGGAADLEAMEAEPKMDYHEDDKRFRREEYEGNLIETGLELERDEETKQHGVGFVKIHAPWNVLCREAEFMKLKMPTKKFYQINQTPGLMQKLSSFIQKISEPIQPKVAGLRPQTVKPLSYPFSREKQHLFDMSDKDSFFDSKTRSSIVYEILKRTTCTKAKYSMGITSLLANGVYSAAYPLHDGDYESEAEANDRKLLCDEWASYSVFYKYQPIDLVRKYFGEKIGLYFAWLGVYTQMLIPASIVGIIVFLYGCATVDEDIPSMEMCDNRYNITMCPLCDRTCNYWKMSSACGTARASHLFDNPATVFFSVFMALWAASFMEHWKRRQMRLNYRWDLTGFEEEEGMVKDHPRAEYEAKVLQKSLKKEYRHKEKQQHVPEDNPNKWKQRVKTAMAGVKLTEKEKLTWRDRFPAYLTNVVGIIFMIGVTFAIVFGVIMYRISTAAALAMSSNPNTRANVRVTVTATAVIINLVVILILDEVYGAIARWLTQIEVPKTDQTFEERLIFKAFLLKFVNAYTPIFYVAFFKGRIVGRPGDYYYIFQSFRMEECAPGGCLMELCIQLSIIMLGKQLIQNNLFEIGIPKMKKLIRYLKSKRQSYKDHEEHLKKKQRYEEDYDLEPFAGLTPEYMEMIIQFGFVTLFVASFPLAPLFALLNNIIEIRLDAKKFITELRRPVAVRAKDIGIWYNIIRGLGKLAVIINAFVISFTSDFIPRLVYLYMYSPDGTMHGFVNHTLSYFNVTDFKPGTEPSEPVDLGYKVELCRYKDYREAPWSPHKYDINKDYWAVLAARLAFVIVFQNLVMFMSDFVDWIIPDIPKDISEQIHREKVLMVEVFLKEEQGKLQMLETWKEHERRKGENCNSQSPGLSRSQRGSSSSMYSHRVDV

## O=C(O)c1c2ccccc2cc2ccccc12 [9-AC]
X. tropicalis Tmem16a; [3]
  IC50: 146 ± 65.8 µM
Human TMEM16Aacd; whole-cell patch clamp ref 60
  IC50: 57.7 µM

## CC(C)(C)C1CCc2c(sc(NC(=O)c3ccco3)c2C(=O)O)C1 (stereo not shown) [CaCCinhA01]
X. tropicalis Tmem16a; 100 µM CaCCinh-A01
  Block of large slowly-activating current in tmem16a-transfected cells: sensitivity to block
X. tropicalis Tmem16a; [3]
  IC50: 12.9 ± 1.96 µM
[1]
  Block of background chloride current in sham transfects: blocked
Human TMEM16A; whole-cell patch clamp ref 62
  IC50: […]

## O=C(O)c1cccnc1Nc1cccc(C(F)(F)F)c1 [Niflumic acid]
X. tropicalis Tmem16a
  IC50: 85.1 ± 19.1 µM
Human TMEM16Aacd; whole-cell patch clamp ref 60
  IC50: 12.1 µM
Human TMEM16Aacd; whole-cell patch clamp ref 61
  IC50: 8.34 µM
Human TMEM16Aacd; whole-cell patch clamp ref 63
  IC50: 8.54 µM

## O=C(O)c1ccc(/C=C2\SC(=S)N(c3cccc(C(F)(F)F)c3)C2=O)cc1 [CFTR Inh-172]
X. tropicalis Tmem16a; [3]
  IC50: > 30 µM

## COc1ccccc1/C=N/NC(=O)COc1ccc(Cl)cc1C [Ani9]
X. tropicalis Tmem16a; 10 µM Ani9
  Block of large slowly-activating current in tmem16a-transfected cells: sensitivity to block
X. tropicalis Tmem16a; 10 µM Ani9, 1 s step from -70 to +70 mV, 338 nM free [Ca2+]i
  Inhibition of evoked Tmem16a current: completely inhibited
X. tropicalis Tmem16a; 10 µM Ani9, all calcium concentrations, fixed depolarisation voltage
  Inhibition of Tmem16a current conductance at varied [Ca2+]i: inhibited at all calcium concentrations
X. tropicalis Tmem16a; [3]
  IC50: 0.098 ± 0.009 µM

## [Ca+2] [intracellular calcium, calcium]
X. tropicalis Tmem16a; free [Ca2+]i varied, fixed depolarisation voltage, read-out: EC50 of intracellular calcium for current conductance
  EC50: 0.227 ± 0.043 µM

## tmem16a splice MO: antisense morpholino oligonucleotide 5'-AATGTTCATTCTTTTTACCTCTTCA-3' targeting donor splice site of exon 2 of tmem16a pre-mRNA (all phosphorodiamidate morpholino (PMO))
Tmem16a
  Tmem16a protein in the plasma membrane of SSCs in the tadpole skin: complete loss
[2]
  Increase of MucXS secretion from the tadpole skin: 3 fold

## COc1cc(Nc2ccc([N+](=O)[O-])cc2C(=O)O)cc2ccccc12 [MONNA]
X. tropicalis Tmem16a; [3]
  IC50: 11.9 ± 3.45 µM
Human TMEM16Aacd; whole-cell patch clamp ref 63
  IC50: 13.6 µM

## CCc1oc2ccccc2c1C(=O)c1cc(Br)c(O)c(Br)c1 [Benzbromarone]
X. tropicalis Tmem16a
  IC50: 3.3 ± 1.45 µM
Human TMEM16Aacd; whole-cell patch clamp ref 63
  IC50: 4.09 µM
Human TMEM16Aacd; whole-cell patch clamp ref 64
  IC50: 2.35 µM
Human TMEM16Aabc
  IC50: 3.05 µM

## COC1=C(OC)C(=O)C(CCCCCCCCCCO)=C(C)C1=O [Idebenone]
X. tropicalis Tmem16a; [3]
  IC50: > 30 µM
Human TMEM16A; 10 µM, whole-cell patch clamp ref 61
  % inhibition human TMEM16A by 10 µM: 54%
Human TMEM16A; 30 µM, whole-cell patch clamp ref 61
  % inhibition human TMEM16A by 30 µM: 90%

## CCc1c(C)nc(SCC(=O)Nc2nc(-c3ccc(OC)cc3)cs2)[nH]c1=O [T16inh-A01]
X. tropicalis Tmem16a; maximal conductance, 338 nM free [Ca2+]i, +70 mV
  Direct inhibition of X. tropicalis Tmem16a channel function: did not directly inhibit
X. tropicalis Tmem16a; [3]
  IC50: > 30 µM
Human TMEM16Aacd; whole-cell patch clamp ref 60
  IC50: 1.51 µM
Human TMEM16Aacd; whole-cell patch clamp ref 63
  IC50: > 30 µM
